Test results taken from patent US8796428B2, “Erk1/2 posphorylation site specific antibody” (Julius-Maximilians-Universitaet Wuerzburg, priority 2008, dated 2014).

How the values were obtained:
Mek = assay: Determination of total inositol phosphates in HEK293-cells; assay type: cell-based; conditions: carbachol 50 μM, 15 min
Description: For determination of total inositol phosphates, the inventors transfected HEK293-cells with the indicated Erk2-constructs. After labeling of the cells with myo-[2-^3H]-inositol (1 mCi ml^−1) in inositol-free DMEM for 24 h, the inventors incubated the cells in incubation buffer (137 mM NaCl, 5 mM KCl, 10 mM LiCl, 1 mM CaCl2, 1 mM MgCl2, 10 mM HEPES, […]) for 15 min. The inventors extracted the inositol phosphates by addition of HClO4 (20%) before neutralizing the extract with KOH (1 M), removing the precipitates by centrifugation and applying the supernatants to anion exchange columns (DowexAG1×8, Biorad). The inventors then eluted total inositol phosphates by HCl (1 M) and measured the incorporated radioactivity by scintillation counting.

Mek1/2 = assay: Co-immunoprecipitation of HA-Raf1 with Gβ in HEK293 cells; assay type: cell-based; conditions: PD98059 50 μM, CCH, 5 min
Description: The inventors prepared cell lysates and tissue lysates using lysis buffer (0.5% (v/v) NP-40, 150 mM NaCl, 25 mM Na4P2O7, 50 mM β-glycerol phosphate disodium salt, 2 mM EDTA, 2 mM EGTA, 25 mM Tris, pH 8.0, 10% (v/v) glycerol, 10 μg ml^−1 soybean trypsin inhibitor, 1 mM benzamidine, 1 mM PMSF, 50 mM NaF, 0.1 mM Na3VO4, 0.002% (w/v) NaN3) similarly as described (Lorenz et al., 2003). The inventors determined the interaction of Gβγ with endogenous Raf1, ERK1/2, HA-tagged Raf1 or HA-tagged Erk2 constructs by immunoprecipitation with the respective antibodies (as indicated in the figures). After immunoprecipitation, the inventors detected co-immunoprecipitated proteins in immunoblot analyses using the respective antibodies (as indicated in the figures). Before lysis, the inventors incubated adult or neonatal cardiomyocytes with or without agonist as indicated (angiotensinII, 100 nM, 5 min or 24 h; carbachol, 300 μM, 10 min or 36 h; neuregulin1-β1, 20 ng ml^−1, 10 min or 24 h; phenylephrine, 35 μM, 5 min or 48 h). […] The inventors prepared ventricular tissue from mouse hearts derived from male 129SvEv (FIG. 1g,h), FVB/N wild-type (WT) or Erk2^T188-transgenic mice (1188T, T188D, T188S, T188A) (FVB/N background) without or after transverse aortic constriction (TAC, see Fig. legends for the duration of TAC) or carbachol-infusion. Control animals were strain-, age- and gender-matched. […]

[1] = system: Gβγ interaction with Raf1 and Erk1/2; assay: Co-immunoprecipitation of Gβγ with Raf1 and Erk1/2 in neonatal rat cardiomyocytes; assay type: cell-based; conditions: angiotensinII 100 nM 5 min, carbachol 300 μM 10 min, neuregulin 20 ng ml^−1 10 min
Description: (§1) The inventors prepared cell lysates and tissue lysates using lysis buffer (0.5% (v/v) NP-40, 150 mM NaCl, 25 mM Na4P2O7, 50 mM β-glycerol phosphate disodium salt, 2 mM EDTA, 2 mM EGTA, 25 mM Tris, pH 8.0, 10% (v/v) glycerol, 10 μg ml^−1 soybean trypsin inhibitor, 1 mM benzamidine, 1 mM PMSF, 50 mM NaF, 0.1 mM Na3VO4, 0.002% (w/v) NaN3) similarly as described (Lorenz et al., 2003). The inventors determined the interaction of Gβγ with endogenous Raf1, ERK1/2, HA-tagged Raf1 or HA-tagged Erk2 constructs by immunoprecipitation with the respective antibodies (as indicated in the figures). After immunoprecipitation, the inventors detected co-immunoprecipitated proteins in immunoblot analyses using the respective antibodies (as indicated in the figures). Before lysis, the inventors incubated adult or neonatal cardiomyocytes with or without agonist as indicated (angiotensinII, 100 nM, 5 min or 24 h; carbachol, 300 μM, 10 min or 36 h; neuregulin1-β1, 20 ng ml^−1, 10 min or 24 h; phenylephrine, 35 μM, 5 min or 48 h). HEK293-cells were cultured in the absence or presence of carbachol (100 μM, 6 min) or UK14304 (1 μM, 10 min) before lysis. […]

Gαq/11 = assay: Detection of tyrosine phosphorylated Gαq/11 in neonatal cardiomyocytes; assay type: cell-based, rat; conditions: 20 ng ml^−1, 10 min
Description: (§2) The inventors assessed phosphorylation of Gαq/11 by immunoprecipitation of Gαq/11 from lysates of neonatal cardiomyocytes without or with neuregulin1-β1 treatment (20 ng ml^−1, 10 min) using Gαq/11-specific antibodies (sc-392 AC, Santa Cruz) followed by detection of phosphotyrosine and immunoprecipitated Gαq/11 by immunoblot analyses. The inventors prepared the lysates as described above.

Erk1/2 = assay: Immunoblot of Thr188-phosphorylation of Erk1/2 in cardiomyocytes; assay type: cell-based; conditions: 20 ng ml^−1
Description: as §1, with “[…];” for “neuregulin1-β1, 20 ng ml^−1, 10 min or 24 h;”

Src-kinase = assay: Neuregulin-induced hypertrophic effects in neonatal cardiomyocytes with Src-kinase inhibitor; assay type: cell-based, rat
Description: as §2
The inventors measured protein synthesis rates in isolated cardiomyocytes by [^3H]isoleucine incorporation. The inventors seeded transfected cardiomyocytes on 24-well plates in MEM supplemented with bromodeoxyuridine (25 mg l^−1), cobalamin (2 mg l^−1), NaHCO3 (350 mg l^−1), penicillin (100 U ml^−1), streptomycin (100 μg ml^−1) and 5% (v/v) fetal calf serum. After 24 h, the inventors reduced the serum concentration to 1% for 1 day followed by fasting in serum-free medium for 24-48 h. Thereafter, the inventors labeled the cells with [^3H]isoleucine (1 μCi ml^−1) for 24-48 h in the absence or presence of 100 nM angiotensinII, 300 μM carbachol, 10 ng ml^−1 neuregulin1-β1 or 35 μM (R)-(−)-phenylephrine as indicated. The inventors measured radioactivity incorporated into the TCA (trichloroacetic acid)-precipitable material by scintillation counting.

COc1cccc(-c2cc(=O)c3ccccc3o2)c1N [PD98059]
carbachol-stimulated inositol phosphate signaling compared to control cells (Mek): enhanced
carbachol-stimulated interaction of HA-Raf1 with Gβ (Mek1/2): suppressed

angiotensinII (DRVYIHPF; Angiotensin-2; UniProt P01019 25-32, looked up) [triggers hypertrophy via Gq-coupled AT1-receptors]
co-immunoprecipitation of Gβγ with both Raf1 and Erk1/2 [1]: markedly enhanced

neuregulin1-β1
phosphorylation of Gαq/11 at Tyr356 (Gαq/11): triggered
Thr188-phosphorylation of Erk1/2 (Erk1/2): induced
co-immunoprecipitation of Gβγ with both Raf1 and Erk1/2 [1]: permitted

CC(C)(C)n1nc(-c2ccc(Cl)cc2)c2c(N)ncnc21 [PP2]
effect on neuregulin-induced effects (Gβγ co-immunoprecipitation, Gαq/11 phosphorylation, protein synthesis) (Src-kinase): blocked
